Broadly, the IC50 is the concentration that inhibits the measured activity by half.

The values that follow come from US20060276440A1, “Treatment of inflammatory disorders” (priority 2005, published 2006).

Holding throughout (type): cell-based, human
For one assay, the system named is OSM signaling. The experiment in a line: […] 4A1 cell line (A549) OSM-stimulated luciferase reporter assay. Particulars: Homo sapiens, A549; 4A1 cell line; primary screen (Table 1); read-out: IC50, inhibition of OSM-stimulated (luciferase) reporter activity. The procedure:
Cell line 4A1 was established in A549 cells (a human lung cancer cell line) using BV32, a vector that carries both the luciferase and GFP reporters. Assay development was performed to optimize the conditions of the OSM-response in the 4A1 […]® line.
Reporter activities of Sentinel® clones were measured using the Steady-Glo® Luciferase assay system (Promega, Madison, Wis.), according to the manufacturer's instructions, and were normalized to cell numbers based on nucleic acid quantification (CyQuant® cell proliferations assay, Molecular Probes/Invitrogen, Carlsbad, Calif.). In order to identify potential anti-inflammatory compounds, the OSM-responding Sentinel® clone 4A1 was used for a library screen of approximately 1800 compounds.
(A reporter such as luciferase makes a cellular process visible.)

Another assay deals with MMP-13. The experiment in a line: IL-1/OSM-stimulated pro-MMP-13 production in SW-1353 cells (ELISA). Particulars: Homo sapiens, SW1353; SW-1353; IL-1/OSM-stimulated; secondary screen (Example 2); read-out: IC50, inhibition of MMP-13 (pro-MMP-13) production. An excerpt: To test the compounds identified in the preliminary reporter (luciferase) activity […]® line 4A1 screen for inhibition of OSM signaling in a more physiologically relevant environment, a human cell line involved in an inflammatory disease was adapted. The human cartilage cell line SW-1353 was selected.
In the human cartilage cell line SW-1353, while IL-1 is believed to activate expression of collagenases to a small degree and OSM is believed to have no effect on collagenase expression, a combination of IL-1 and OSM is believed to lead to a synergistic activation of collagenases to much higher levels (S. Cowell et al., Biochem J 331 (Pt 2), 453 (Apr. 15, 1998). Regulation of MMP-13 in SW-1353 cells is, therefore, believed to provide a biomarker which can be used to monitor IL-1/OSM-mediated signal transduction events in secondary assays.
(§1) The same supernatants of culture media used in the primary screen were assayed for IL-1/OSM-stimulated pro-MMP-13 production and MMP-2 production by enzyme-linked immunosorbent assay (ELISA).
(§2) For matrix metalloproteinase (MMP) measures, SW1353 cells were grown to confluence in 24 well plates, washed in DMEM (with Ham's F12) and placed in 500 ul of serum free DMEM/F-12 with 0.2% lactalbumin hydrosylate with and without OsM/IL-1. After 24 hrs, supernatants were collected and the amounts of proMMP13, totalMMP2, and proMMP1 were measured using Quantikine® ELISA kit for human MMPs (R & D systems, Minneapolis, Minn.). All MMP measures were normalized to viable cell numbers based on a tetrazolium (MTS) colorimetric measure (Promega, Madison, Wis.).

The subject of a further assay is MMP-2. The experiment in a line: MMP-2 production in SW1353 cells (ELISA, control). Particulars: SW-1353; FIG. 5. As to the method:
MMP-2 production can be used as control for the potential side-effects of compounds. This is because MMP-2 levels are not believed to change in response to IL-1/OSM.
as §1, §2
(§3) Multiple control assays were performed to investigate the selectivity of CA4 action. Matrix metalloproteinase-2 (MMP-2) production in SW1353 cells was tested. Mutation of MMP-2 causes a multicentric osteolysis and arthritis syndrome (Martignetti et al., Nat Genet 28, 261-265 (2001) the entire contents of which are incorporated herein by reference), and theoretically its expression should not be affected in treating RA. CA4 at approximately 110 nM had no effect on production of MMP-2 (FIG. 12E). An A549 Sentinel line that responded to TGF-β was then tested.

For another assay, the system named is TGF-β. Put plainly: A549 Sentinel line TGF-β-stimulated reporter activity. The note with it: inhibitor of TGF-β receptor, control. The procedure:
as §3

“Also recorded” adds a separate entry of the source.

Turning to `CC(C)C1=CC2=CCC3[C@](C)(C(=O)O)CCC[C@@]3(C)[C@@H]2CC1` (stereo in doubt) [Abietic acid (2), abietic acid], the IC50 in the assay on OSM signaling was found to be 12 nM; in the assay with MMP-13, 6 nM. The “inhibitory effect on MMP-13 expression compared to MMP-2 expression” value in the assay with MMP-2 is “greater inhibitory effects on MMP-13 expression compared to MMP-2 expression; also recorded: preferentially inhibit MMP-13 expression compared to MMP-2 expression”.
With `C=C(C)[C@H]1CC[C@@]2(C(=O)O)CC[C@@]3(C)[C@@H](CC[C@H]4[C@]5(C)CC[C@@H](O)C(C)(C)[C@H]5CC[C@@]43C)[C@H]12` (stereo in doubt) [Betulinic acid (9), betulinic acid], the values for the half-maximal inhibitory concentration (IC50) with OSM signaling and in the assay with MMP-13 were 3300 nM and 600 nM, respectively. In the assay on MMP-2, the “inhibitory effect on MMP-13 expression compared to MMP-2 expression” value is reported as “greater inhibitory effects on MMP-13 expression compared to MMP-2 expression; also recorded: preferentially inhibit MMP-13 expression compared to MMP-2 expression”.
In the case of `CCc1oc2ccccc2c1C(=O)c1cc(Br)c(O)c(Br)c1` [Benzobromarone (8), (3,5-dibromo-4-hydroxyphenyl)(2-ethylbenzofuran-3-yl)methanone], the figures for the IC50 with OSM signaling and with MMP-13 were 2200 nM and 400 nM, respectively. Moreover, the “inhibitory effect on MMP-13 expression compared to MMP-2 expression” value in the assay with MMP-2 is given as “greater inhibitory effects on MMP-13 expression compared to MMP-2 expression; also recorded: preferentially inhibit MMP-13 expression compared to MMP-2 expression”.
`Cc1ccc(C(=O)Cn2c3c(sc2=N)CCCC3)cc1` [Pifithrine-alpha (12), 2-(2-imino-4,5,6,7-tetrahydrobenzothiazol-3-yl)-1-p-tolylethanone]: the half-inhibitory concentration (IC50) in the assay on MMP-13 was determined as 32000 nM. In addition, in the assay on MMP-2, the “inhibitory effect on MMP-13 expression compared to MMP-2 expression” value is recorded as “greater inhibitory effects on MMP-13 expression compared to MMP-2 expression; also recorded: preferentially inhibit MMP-13 expression compared to MMP-2 expression”.
In the case of `NC(=O)c1ccc(-c2nc(-c3ccc4c(c3)OCO4)c(-c3ccccn3)[nH]2)cc1` [SB431542, reference compound], the “effect on TGF-β-induced reporter activity” value in the assay on TGF-β is on record as “able to inhibit”.
